This note sets out measurements from US8088819B2, “Derivatives of substituted 3-phenyl-1-(phenylthienyl)propan-1-ones and of 3-phenyl-1-(phenylfuranyl) propan-1-ones, preparation and use” (priority 2006, dated 2012).

For one assay, the system named is C57Bl6 mouse. The assay is described as follows: Plasma lipid assays in the C57Bl6 mouse, compound 2 at dose effect. The class given is in vivo. The protocol:
The effect of compound 2, administered at dose effect, is evaluated in vivo in the C57Bl6 mouse after 14 days of treatment by the oral route. At the end of the treatment, the antilipemic effect of compound 2 is evaluated by measuring the plasma levels of total cholesterol, of HDL-cholesterol, of triglycerides and of free fatty acids.
Female C57Bl6 mice were kept under a cycle of light and darkness of 12/12 hours at a constant temperature of 20±3° C. After acclimation for one week, the mice were weighed and put into groups of 6 animals selected so that the distribution of their body weight, of their plasma lipid levels and of total cholesterol determined for the first time before the experiment, is uniform. The test compounds were suspended in carboxymethylcellulose (Sigma C4888) and administered by intragastric force feeding, at a rate of once per day for 14 days at the chosen dose. The animals had free access to water and to food (standard diet). At the end of the experiment, the animals were anesthetized after fasting for 4 hours. A blood sample was taken using anticoagulant (EDTA), then the mice were weighed and euthanased. The plasma was separated by centrifugation at 3000 rev/min for 20 minutes, and the samples were stored at +4° C.
Plasma concentrations of total cholesterol and of triglycerides were measured by enzyme assays (bioMérieux-Lyon-France) following the supplier's recommendations.
Low-density lipoproteins (VLDL and LDL) were precipitated with phosphotungstate. The precipitate was removed by centrifugation. The HDL-cholesterol present in the supernatant was quantified by enzyme assays (bioMérieux-Lyon-France) following the supplier's recommendations.
Plasma concentrations of free fatty acids were measured by enzyme assays (WACO chemicals) following the supplier's recommendations.

In a further assay the test system is db/db mouse. The assay is described as follows: Plasma triglycerides and insulinemia in the db/db mouse. The class given is in vivo. Particulars: 50 mpk oral, 28 days. How it is done: The effect of the compounds according to the invention is evaluated in vivo in the db/db mouse by measuring the plasma triglycerides and insulinemia after 28 days of treatment with compound 2 by the oral route. These levels are compared with those obtained with control animals (not treated with the compound according to the invention). The measured difference provides evidence of the antilipemic effect and effect on insulin resistance of the compound according to the invention.
Female db/db mice were kept under a cycle of light and darkness of 12/12 hours at a constant temperature of 20±3° C. After acclimation for one week, the mice were weighed and put in groups of 8 animals selected so that the distribution of their body weight and of their plasma lipid levels, determined for the first time before the experiment, are uniform. The test compounds were suspended in carboxymethylcellulose (Sigma C4888) and administered by intragastric force feeding, at a rate of once per day for 28 days at the chosen dose. The animals had free access to water and to food (standard diet). The food intake and the weight gain are recorded throughout the experiment. […]
The plasma concentrations of triglycerides were measured by enzyme assays (bioMérieux-Lyon-France) following the supplier's recommendations. […]

The next assay deals with T1, hPPARalpha (Homo sapiens, UniProt Q07869).
T1 construct: expressed in transfected cells; host or cells: COS-7 (monkey kidney fibroblasts)
T1 sequence (Q07869 239-466 limits assumed): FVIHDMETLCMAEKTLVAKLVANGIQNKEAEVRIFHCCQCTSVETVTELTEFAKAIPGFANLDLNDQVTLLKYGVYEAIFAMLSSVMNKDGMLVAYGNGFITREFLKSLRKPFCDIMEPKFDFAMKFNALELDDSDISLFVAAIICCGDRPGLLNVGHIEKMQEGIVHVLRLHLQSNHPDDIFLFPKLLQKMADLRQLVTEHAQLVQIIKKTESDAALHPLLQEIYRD
The assay is described as follows: PPAR activation: Gal4-hPPARα chimera luciferase transactivation in COS-7 cells, Method 2. The class given is cell-based. The note with it: COS-7, 24 h. In a few lines: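 COS-7 cells were transfected with Gal4-PPAR LBD chimera plus Gal4(RE)_TkpGL3 luciferase reporter (1/10) and seeded serum-free for 4 h. Compounds at 10^−5 to 100 μm were applied for 24 h at 37° C in 1% lipid-free synthetic serum. Luciferase was read after lysis, and EC50 derived.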

Another assay deals with T2, hPPARgamma (Homo sapiens, UniProt P37231).
T2 construct: expressed in transfected cells; host or cells: COS-7 (monkey kidney fibroblasts)
T2 sequence (P37231 238-503 limits assumed): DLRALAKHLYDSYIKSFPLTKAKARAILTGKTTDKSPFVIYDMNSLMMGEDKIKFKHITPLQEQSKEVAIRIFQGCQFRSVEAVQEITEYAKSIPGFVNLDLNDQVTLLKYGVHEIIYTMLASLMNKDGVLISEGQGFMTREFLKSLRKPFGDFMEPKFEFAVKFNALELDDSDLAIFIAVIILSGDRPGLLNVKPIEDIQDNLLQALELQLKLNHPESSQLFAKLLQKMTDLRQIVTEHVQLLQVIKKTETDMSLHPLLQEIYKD
The assay is described as follows: PPAR activation: Gal4-hPPARγ chimera luciferase transactivation in COS-7 cells, Method 2. The class given is cell-based. The note with it: COS-7, 24 h, Method 2. In a few lines:
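Transactivation by a Gal4 DNA-binding domain–hPPARγ ligand-binding domain chimera with a Gal4(RE)-luciferase reporter, transfected into COS-7 cells (plasmid ratio 1/10).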

On to `CC(C)(Oc1ccc(CCC(=O)c2ccc(-c3ccc(C(F)(F)F)cc3)s2)c(Cl)c1Cl)C(=O)O` [Compound 2, 2-(2,3-dichloro-4-(3-oxo-3-(5-(4-(trifluoromethyl)phenyl)thien-2-yl)propyl)phenoxy)-2-methylpropanoic acid], for which the lipid profile entry in the assay on C57Bl6 mouse (C57Bl6 mice treated for 14 days) is “improves”. In addition, the plasma triglyceride levels entry in the assay with C57Bl6 mouse (C57Bl6 mouse, 14 days oral, 1, 5, 10 and 50 mpk, significant effect at 50 mpk) is recorded as “dose-dependent decrease”. The “plasma total cholesterol levels” value in the assay on C57Bl6 mouse (C57Bl6 mouse, 14 days oral, at 5 and 50 mpk (tested 1, 5, 10 and 50 mpk)) is “significantly increased”. Moreover, the “plasma HDL-cholesterol levels” value in the assay with C57Bl6 mouse (C57Bl6 mouse, 14 days oral, dose-dependent manner starting from 1 mpk) is given as “significantly increased”. The “plasma levels of free fatty acids” value with C57Bl6 mouse (C57Bl6 mouse, 14 days oral, starting from 10 mpk) was “lowered significantly”. Further, in the assay with db/db mouse, the “insulinemia (plasma levels of insulin)” value is given as “lowered significantly” and the plasma triglyceride level entry is reported as “lowered significantly”.

`CC(C)(Oc1ccc(CCC(OCc2ccccc2)c2ccc(-c3ccc(C(F)(F)F)cc3)s2)c(Cl)c1Cl)C(=O)O` (centres unmarked) [Compound 7, 2-(4-(3-(benzyloxy)-3-(5-(4-(trifluoromethyl)phenyl)thien-2-yl)propyl)-2,3-dichlorophenoxy)-2-methylpropanoic acid]: the EC50 (commonly the concentration that produces a half-maximal response) came out at 5.46 µM on hPPARalpha (1% Ultroser) and 1700 nM at hPPARgamma (1% Ultroser, read-out: hPPARgamma EC50). The Emax was 20% on hPPARalpha (maximum percentage response relative to the reference phenofibric acid, read-out: hPPARalpha % max) and 40% on hPPARgamma (maximum percentage response relative to the reference rosiglitazone, read-out: hPPARgamma % max).
